# Measured values reported in US20070049564A1 (Wyeth, priority 2005, published 2007).
# Experiments:
# Test in all cases: MIC, broth microdilution
# [1] = test system: E. coli GC 1073; settings: Escherichia coli, GC1073, E. coli GC 1073
# [2] = test system: E. coli GC 2234; settings: Escherichia coli, GC2234, E. coli GC 2234
# [3] = test system: S. aureus GC 1131; settings: Staphylococcus aureus, GC1131, S. aureus GC 1131
# [4] = test system: E. faecium GC 4556; settings: Enterococcus faecium, GC4556, E. faecium GC 4556
# [5] = test system: E. coli GC 2235; settings: Escherichia coli, GC2235, E. coli GC 2235
# Description: (§1) Antimicrobial susceptibility testing. The in vitro activities of the antibiotics are determined by the broth microdilution method as recommended by the National Committee for Clinical Laboratory Standards (NCCLS) (1). Mueller-Hinton II broth (MHBII)(BBL Cockeysville, Md.) is the medium employed in the testing procedures. Microtiter plates containing serial dilutions of each antimicrobial agent are inoculated with each organism to yield the appropriate density (10^5 CFU/ml) in a 100 μl final volume. The plates are incubated for 18-22 hours at 35° C. in ambient air.
# (§2) Representative compounds were first incubated in mouse serum for an hour prior to the in vitro testing against a panel of selected gram-positive and gram-negative bacteria strains. All compounds were also pre-incubated in water for an hour prior to testing as control. Representative compounds of Formula I were incubated in human serum prior to MIC determination.
# [6] = test system: S. pneumoniae+ GC 4465; settings: Streptococcus pneumoniae, S. pneumoniae+ GC 4465
# [7] = test system: S. aureus GC 2216; settings: Staphylococcus aureus, GC2216, S. aureus GC 2216
# Description: (§3) Antimicrobial susceptibility testing. The in vitro activities of the antibiotics are determined by the broth microdilution method as recommended by the National Committee for Clinical Laboratory Standards (NCCLS) (1). Mueller-Hinton II broth (MHBII)(BBL Cockeysville, Md.) is the medium employed in the testing procedures. Microtiter plates containing serial dilutions of each antimicrobial agent are inoculated with each organism to yield the appropriate density (10^5 CFU/ml) in a 100 μl final volume. The plates are incubated for 18-22 hours at 35° C. in ambient air. […] Standard Pharmacological Test Procedures
# (§4) Presented in Tables I-XIII are representative compounds of Formula I which were evaluated against a panel of 40 selected gram-positive and gram-negative bacteria strains by pre-incubation in water, mouse serum or human serum. Representative compounds were first incubated in mouse serum for an hour prior to the in vitro testing against a panel of selected gram-positive and gram-negative bacteria strains. All compounds were also pre-incubated in water for an hour prior to testing as control. Representative compounds of Formula I were incubated in human serum prior to MIC determination.
# [8] = test system: E. coli GC 2271; settings: Escherichia coli, GC2271, E. coli GC 2271
# [9] = test system: E. coli GC 2236; settings: Escherichia coli, GC2236, E. coli GC 2236
# Description: as §3, §4
# [10] = test system: E. coli GC 4559; settings: Escherichia coli, GC4559, E. coli GC 4559
# [11] = test system: E. coli GC 2233; settings: Escherichia coli, GC2233, E. coli GC 2233
# Description: as §1
# Representative compounds were first incubated in mouse serum for an hour prior to the in vitro testing against a panel of selected gram-positive and gram-negative bacteria strains. All compounds were also pre-incubated in water for an hour prior to testing as control.
# [12] = test system: P. aeruginosa GC 2214; settings: Pseudomonas aeruginosa, GC2214, P. aeruginosa GC 2214
# [13] = test system: S. epidermidis GC 4935; settings: Staphylococcus epidermidis, GC4935, S. epidermidis GC 4935
# Description: as §1, §2
# [14] = test system: E. faecalis GC 2242; settings: Enterococcus faecalis, GC2242, E. faecalis GC 2242
# [15] = test system: S. aureus GC 6335; settings: Staphylococcus aureus, GC6335, S. aureus GC 6335
# [16] = test system: E. coli GC 2270; settings: Escherichia coli, GC2270, E. coli GC 2270
# [17] = test system: S. pyogenes GC 4563; settings: Streptococcus pyogenes, GC4563, S. pyogenes GC 4563
# [18] = test system: S. aureus GC 1079; settings: Staphylococcus aureus, GC1079, S. aureus GC 1079
# [19] = test system: c. albicans GC 3066
smiles,measurement,setting,value
"CCCN(CC(=O)Nc1cc(N(C)C)c2c(c1O)C(=O)C1=C(O)[C@]3(O)C(=O)C(C(N)=O)=C(O)[C@@H](N(C)C)[C@@H]3C[C@@H]1C2)C(=O)OCC [Example 15, ethyl 2-{[(5aR,6aS,7S,10aS)-9-(aminocarbonyl)-4,7-bis(dimethylamino)-1,8,10a,11-tetrahydroxy-10,12-dioxo-5,5a,6,6a,7,10,10a,12-octahydrotetracen-2-yl]amino}-2-oxoethyl(propyl)carbamate]",MIC,[1]; Mouse Serum pre-incubation,> 64 µg/mL
same,MIC,[1]; Water pre-incubation,> 64 µg/mL
same,MIC,[2]; Mouse Serum pre-incubation,> 64 µg/mL
same,MIC,[2]; Water pre-incubation,> 64 µg/mL
same,MIC,[3]; Mouse Serum pre-incubation,2 µg/mL
same,MIC,[3]; Water pre-incubation,4 µg/mL
same,MIC,[4]; Mouse Serum pre-incubation,8 µg/mL
same,MIC,[4]; Water pre-incubation,8 µg/mL
same,MIC,[5]; Mouse Serum pre-incubation,32 µg/mL
same,MIC,[5]; Water pre-incubation,32 µg/mL
same,MIC,[6]; Mouse Serum pre-incubation,4 µg/mL
same,MIC,[6]; Water pre-incubation,4 µg/mL
same,MIC,[7]; Mouse Serum pre-incubation,2 µg/mL
same,MIC,[7]; Water pre-incubation,4 µg/mL
same,MIC,[8]; Mouse Serum pre-incubation,64 µg/mL
same,MIC,[8]; Water pre-incubation,64 µg/mL
same,MIC,[9]; Mouse Serum pre-incubation,> 64 µg/mL
same,MIC,[9]; Water pre-incubation,64 µg/mL
same,MIC,[10]; Mouse Serum pre-incubation,> 64 µg/mL
same,MIC,[10]; Water pre-incubation,> 64 µg/mL
same,MIC,[11]; Mouse Serum pre-incubation,> 64 µg/mL
same,MIC,[11]; Water pre-incubation,> 64 µg/mL
same,MIC,[12]; Mouse Serum pre-incubation,> 64 µg/mL
same,MIC,[12]; Water pre-incubation,> 64 µg/mL
same,MIC,[13]; Mouse Serum pre-incubation,16 µg/mL
same,MIC,[13]; Water pre-incubation,16 µg/mL
same,MIC,[14]; Mouse Serum pre-incubation,8 µg/mL
same,MIC,[14]; Water pre-incubation,8 µg/mL
same,MIC,[15]; Mouse Serum pre-incubation,4 µg/mL
same,MIC,[15]; Water pre-incubation,4 µg/mL
same,MIC,[16]; Mouse Serum pre-incubation,64 µg/mL
same,MIC,[16]; Water pre-incubation,64 µg/mL
same,MIC,[17]; Mouse Serum pre-incubation,2 µg/mL
same,MIC,[17]; Water pre-incubation,2 µg/mL
same,MIC,[18]; Mouse Serum pre-incubation,2 µg/mL
same,MIC,[18]; Water pre-incubation,4 µg/mL
same,MIC,"[19]; Candida albicans, GC3066",> 64 µg/mL
same,MIC,"[19]; c. albicans GC 3066, Water pre-incubation",>64 UG/ML
